Reference: PubChem BioAssay AID1963438 (Molecular Pharmacology Branch, DTP, NCI, 2024)

Tested on: NCI-H510 multicellular tumor spheroid growth, % test/control
Test: Anticancer human tumor NCI-H510 cell line growth inhibition [Asc];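 note: spheroids exposed to agents for 7 days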;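 for viability, T/C: 100% = DMSO vehicle control wells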
Conditions: for IC50: curve of first compound; for viability, T/C: stronger effect = lower value
How it was run: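 Spheroid model: tumor line + HUVEC + hMSC. Single agents and combinations; top conc. at/near clinical Cmax (10 microM if undetermined), half-log dilutions. DMSO stocks at 800-fold test concentration.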

[1] = second compound 0.03 µM, first compound 0.0316 µM
[2] = second compound 0.03 µM, first compound 0.1 µM
[3] = second compound 0.03 µM, first compound 0.316 µM
[4] = second compound 0.03 µM, first compound 1 µM
[5] = second compound 0.03 µM, first compound 3.16 µM
[6] = second compound 0.03 µM, first compound 10 µM
[7] = second compound 0.0949 µM, first compound 0.0316 µM
[8] = second compound 0.0949 µM, first compound 0.1 µM
[9] = second compound 0.0949 µM, first compound 0.316 µM
[10] = second compound 0.0949 µM, first compound 1 µM
[11] = second compound 0.0949 µM, first compound 3.16 µM
[12] = second compound 0.0949 µM, first compound 10 µM
[13] = second compound 0.3 µM, first compound 0.0316 µM
[14] = second compound 0.3 µM, first compound 0.1 µM
[15] = second compound 0.3 µM, first compound 0.316 µM
[16] = second compound 0.3 µM, first compound 1 µM
[17] = second compound 0.3 µM, first compound 3.16 µM
[18] = second compound 0.3 µM, first compound 10 µM
[19] = second compound 0.949 µM, first compound 0.0316 µM
[20] = second compound 0.949 µM, first compound 0.1 µM
[21] = second compound 0.949 µM, first compound 0.316 µM
[22] = second compound 0.949 µM, first compound 1 µM
[23] = second compound 0.949 µM, first compound 3.16 µM
[24] = second compound 0.949 µM, first compound 10 µM
[25] = second compound 3 µM, first compound 0.0316 µM
[26] = second compound 3 µM, first compound 0.1 µM
[27] = second compound 3 µM, first compound 0.316 µM
[28] = second compound 3 µM, first compound 1 µM
[29] = second compound 3 µM, first compound 3.16 µM
[30] = second compound 3 µM, first compound 10 µM

Row | IC50 (second compound 0.03 µM) | IC50 (second compound 0.0949 µM) | IC50 (second compound 0.3 µM) | IC50 (second compound 0.949 µM) | IC50 (second compound 3 µM) | SMILES | viability, T/C [1] | viability, T/C [2] | viability, T/C [3] | viability, T/C [4] | viability, T/C [7] | viability, T/C [8] | viability, T/C [9] | viability, T/C [10] | viability, T/C [13] | viability, T/C [14] | viability, T/C [15] | viability, T/C [16] | viability, T/C [19] | viability, T/C [20] | viability, T/C [21] | also measured
1 | 1170 nM | 1100 nM | 1280 nM | 717 nM | 1180 nM | C=C(F)C(=O)N1CCN(c2nc(OCC3CCCN3C)nc3c2CCN(c2cccc4cccc(Cl)c24)C3)CC1CC#N (stereo not given) + CCN1C(C(=O)NC23CCC(C(=O)O)(CC2)CC3)C(c2cccc(Cl)c2F)C2(C(=O)Nc3cc(Cl)ccc32)C12CCCCC2 | 93.8% | 103% | 88.3% | 58.2% | 78.5% | 89% | 100% | 54.6% | 106% | 88% | 109% | 62.5% | 95.3% | 91.4% | 88.5% | viability, T/C [5]: 1.61%; viability, T/C [6]: 0.12%; viability, T/C [11]: 3.81%; viability, T/C [12]: 0.11%; viability, T/C [17]: 7.29%; viability, T/C [18]: 0.11%; viability, T/C [22]: 34.3%; viability, T/C [23]: 4.93%; viability, T/C [24]: 0.1%; viability, T/C [25]: 87.5%; viability, T/C [26]: 121%; viability, T/C [27]: 95%; viability, T/C [28]: 52.5%; viability, T/C [29]: 20.7%; viability, T/C [30]: 0.18%
2 | > 10000 nM | > 10000 nM | > 10000 nM | > 10000 nM | > 10000 nM | C=CC(=O)N1CCN(c2nc(=O)n(-c3c(C)ccnc3C(C)C)c3nc(-c4c(O)cccc4F)c(F)cc23)C(C)C1 (stereo not given) + CCN1C(C(=O)NC23CCC(C(=O)O)(CC2)CC3)C(c2cccc(Cl)c2F)C2(C(=O)Nc3cc(Cl)ccc32)C12CCCCC2 | 70.7% | 108% | 81% | 100% | 117% | 117% | 98.5% | 105% | 90.3% | 103% | 91.5% | 101% | 100% | 107% | 109% | viability, T/C [5]: 90.2%; viability, T/C [6]: 98.3%; viability, T/C [11]: 96.8%; viability, T/C [12]: 89.5%; viability, T/C [17]: 98.4%; viability, T/C [18]: 95.6%; viability, T/C [22]: 104%; viability, T/C [23]: 91.3%; viability, T/C [24]: 92.4%; viability, T/C [25]: 116%; viability, T/C [26]: 97.8%; viability, T/C [27]: 85.3%; viability, T/C [28]: 101%; viability, T/C [29]: 103%; viability, T/C [30]: 79.2%
3 | > 1000 nM | > 1000 nM | > 1000 nM | > 1000 nM | > 1000 nM | COc1c(OCCCN2CCOCC2)ccc2c3n(c(=NC(=O)c4cnc(N)nc4)nc12)CCN3 + CCN1C(C(=O)NC23CCC(C(=O)O)(CC2)CC3)C(c2cccc(Cl)c2F)C2(C(=O)Nc3cc(Cl)ccc32)C12CCCCC2 | 96.4% | 93.6% | 70% | 58.7% | 98.4% | 99.3% | 92.5% | 65.6% | 105% | 105% | 95.6% | 51.2% | 114% | 104% | 62% | viability, T/C (second compound 0.03 µM, first compound 0.00316 µM): 94.2%; viability, T/C (second compound 0.03 µM, first compound 0.01 µM): 112%; viability, T/C (second compound 0.0949 µM, first compound 0.00316 µM): 94.3%; viability, T/C (second compound 0.0949 µM, first compound 0.01 µM): 91%; viability, T/C (second compound 0.3 µM, first compound 0.00316 µM): 92.3%; viability, T/C (second compound 0.3 µM, first compound 0.01 µM): 101%; viability, T/C (second compound 0.949 µM, first compound 0.00316 µM): 80.6%; viability, T/C (second compound 0.949 µM, first compound 0.01 µM): 99.5%; viability, T/C [22]: 80.4%; viability, T/C (second compound 3 µM, first compound 0.00316 µM): 112%; viability, T/C (second compound 3 µM, first compound 0.01 µM): 105%; viability, T/C [25]: 73.9%; viability, T/C [26]: 85%; viability, T/C [27]: 86.5%; viability, T/C [28]: 83.3%
